In patent US12065622B2, “Ammonium-based ionic liquid and its use as a lubricant additive” (TOTALENERGIES ONETECH, priority 2020, dated 2024):

Test: Base number (TBN) according to ASTM D2896
Type: physicochemical
Details: neat ionic liquid
Experimental: An oil's neutralization capacity is measured by its BN or Base Number, characterized by its basicity. It is measured according to standard ASTM D-2896 and is expressed as an equivalent in milligrams of potash per gram of oil (also called “mg of KOH/g” or “BN point”). The BN is a standard criterion making it possible to adjust the basicity of the cylinder oils to the sulphur content of the fuel oil used, in order to be able to neutralize all of the sulphur contained in the fuel, and capable of being converted to sulphuric acid by combustion and hydrolysis.

Tri-n-Octylmethylammonium 2-Ethylhexanoate [IL1]
base number: 114 mg KOH/g
